This note sets out measurements from patent publication US10358453B2, “Antiviral compounds” (priority 2015, dated 2019).

Molecules are shown by their SMILES.

A short description of series [1]: Cytotoxicity determination (CCK-8, without addition of virus). The format is cell-based. Conditions: human, HEp-2 cells (uninfected), no virus, Table C = greater than 100 μM, Table D = equal to or less than 100 μM and greater than 10 μM. How it is done:
CPE reduction assays are performed as described by Sidwell and Huffman et al., Appl. Microbiol. (1971) 22(5):797-801 with slight modifications. HEp-2 cells (ATCC#, CCL-23) are seeded at a density of 1,500 cells/30 μL/well into the 384-well cell plate(s) (Corning#3701) one day prior to the assay. Compounds are added into 384-well cell plates by Labcyte POD 810 Plate Assembler system. Each of the test compounds is provided to duplicate wells of a 384-well cell plate at final concentrations starting from 100 μM or 1 μM using 1/3 stepwise dilutions for 9 points. Quick-thaw Respiratory Syncytial Virus (RSV) long strain (ATCC#VR-26) stock in a 37° C. water bath. Place on ice until ready to use. Viruses are diluted to the concentration of 100 TCID50/30 μL with medium and 30 μl diluted RSV are added into related wells of 384-well cell plates. For each plate, sixteen wells are set aside as uninfected, untreated cell controls (CC), and nine wells per test plate receive virus only as a control for virus replication (VC). The final DMSO concentration of all wells is 1%. Place the plates at 37° C., 5% CO2 for 5 days.
In order to determine the compound cytotoxicity, in parallel, each of the compounds is applied to duplicate wells in a 384-well cell plate at serial final concentrations starting from 100 μM using ½ stepwise dilutions for 7 points without addition of virus. Incubate the cells at 37° C., 5% CO2 for 5 days. Add 6 μL CCK-8 into each well and incubate in a CO2 incubator at 37° C. for 3-4 h. Read the plates to obtain the optical densities which are used to calculate 50% cytotoxicity concentration (CC50).

In series [2] the target is recombinant RSV complex (Human respiratory syncytial virus A, UniProt P28887). Put plainly: RSV polymerase inhibition assay. The format is biochemical. Conditions: 10 nM recombinant RSV complex, 2 h at 30° C.; Table E = <1 μM, Table F = <50 μM; read-out: IC50. How it is done: Standard RSV polymerase assays were conducted in the presence of 10 nM recombinant RSV complex in a reaction buffer containing Tris-HCl pH7.5, 6 mM MgCl2, and other additives and substrates including RNA oligonucleotides and radionucleotides. Standard reactions were incubated in 96-well plate format for 2 h at 30° C., in the presence of increasing concentration of inhibitor. The reaction was stopped with 90 μL of 0.1M EDTA, and the reaction product was transferred to a “reading” 96-well plate. After washing of the plate, radiolabeled RNA products were detected according to standard procedures with a Trilux Topcount scintillation counter. The compound concentration at which the enzyme-catalyzed rate was reduced by 50% (IC50) was calculated by fitting the data to a non-linear regression (sigmoidal).

For series [3], the system named is RSV subgenomic replicon 395 HeLa and APC126. Put plainly: RSV subgenomic replicon assay (Renilla luciferase). Conditions: RSV replicon cells (395 HeLa 7 days or APC126 3 days), Table G = less than 1 μM, Table H = equal to or higher than 1 μM and less than 50 μM. It is filed as cell-based. The text has this: The RSV subgenomic replicon 395 HeLa and APC126 were licensed from Apath (Brooklyn, N.Y.) and were originally developed by Dr. Mark Meeples of Center for Vaccines & Immunity, the Research Institute at Nationwide Children's Hospital in Columbus, Ohio. To generate subgenomic RSV replicon, three glycoprotein genes, those for SH, G, and F, from a full-length recombinant GFP-expressing (rg) RSV antigenomic cDNA were deleted. In their place, a blasticidin S deaminase (bsd) gene was inserted. Through multiple steps, the RSV replicon was established in HeLa cells (395 Hela) or BHK cells (APC126). Both 395 HeLa and APC126 cells were cultured in Dulbecco's Modified Eagle Medium (DMEM) containing 4500 mg/L D-glucose, L-glutamine, and 110 mg/L sodium pyruvate (Invitrogen, Cat. #11995-040). The medium was further supplemented with 10% (v/v) fetal bovine serum (FBS) (Mediatech, Cat. #35-010-CV), 1% (v/v) penicillin/streptomycin (Mediatech, Cat. #30-002-CI), and 10 μg/mL of Blasticidin (BSD) (Invivogen, Cat. code ant-bl-1). Cells were maintained at 37° C. in a humidified 5% CO2 atmosphere.
Determination of 50% inhibitory concentration (EC50), 90% inhibitory concentration (EC90) and 50% cytotoxic concentration (CC50) in RSV replicon cells were performed by the following procedure. On the first day, 5000 RSV replicon cells per well were plated in a 96-well plate. On the following day, compounds to be tested were solubilized in 100% DMSO to 100X the desired final testing concentration. Each compound was serially diluted (1:3) up to 9 distinct concentrations. Compounds in 100% DMSO were reduced to 10% (v/v) DMSO by diluting 1:10 in cell culture media. A 10 μL sample of the compounds diluted to 10% (v/v) DMSO with cell culture media was used to treat the RSV replicon cells in 96-well format. The final DMSO concentration was 1% (v/v). Cells were incubated with compounds for 7 days (for 395Hela) or 3 days (for APC126) at 37° C. in a 5% CO2 atmosphere. In each assay, positive control that was previously characterized in the RSV replicon assay was included.
The Renilla Luciferase Assay System (Promega, Cat. #E2820) was used to measure anti-RSV replicon activity. Assay plates were set up as stated above. Luminescence was recorded using a Perkin Elmer multilabel counter Victor3V. EC50, the concentration of the drug required for reducing RSV replicon RNA by 50% in relation to the untreated cell control value, was calculated from the plot of percentage reductions of the […] against the drug concentrations using the Microsoft Excel forecast function.

[4] abbreviates: human respiratory syncytial virus.

recombinant RSV complex, sequence (P28887 whole entry): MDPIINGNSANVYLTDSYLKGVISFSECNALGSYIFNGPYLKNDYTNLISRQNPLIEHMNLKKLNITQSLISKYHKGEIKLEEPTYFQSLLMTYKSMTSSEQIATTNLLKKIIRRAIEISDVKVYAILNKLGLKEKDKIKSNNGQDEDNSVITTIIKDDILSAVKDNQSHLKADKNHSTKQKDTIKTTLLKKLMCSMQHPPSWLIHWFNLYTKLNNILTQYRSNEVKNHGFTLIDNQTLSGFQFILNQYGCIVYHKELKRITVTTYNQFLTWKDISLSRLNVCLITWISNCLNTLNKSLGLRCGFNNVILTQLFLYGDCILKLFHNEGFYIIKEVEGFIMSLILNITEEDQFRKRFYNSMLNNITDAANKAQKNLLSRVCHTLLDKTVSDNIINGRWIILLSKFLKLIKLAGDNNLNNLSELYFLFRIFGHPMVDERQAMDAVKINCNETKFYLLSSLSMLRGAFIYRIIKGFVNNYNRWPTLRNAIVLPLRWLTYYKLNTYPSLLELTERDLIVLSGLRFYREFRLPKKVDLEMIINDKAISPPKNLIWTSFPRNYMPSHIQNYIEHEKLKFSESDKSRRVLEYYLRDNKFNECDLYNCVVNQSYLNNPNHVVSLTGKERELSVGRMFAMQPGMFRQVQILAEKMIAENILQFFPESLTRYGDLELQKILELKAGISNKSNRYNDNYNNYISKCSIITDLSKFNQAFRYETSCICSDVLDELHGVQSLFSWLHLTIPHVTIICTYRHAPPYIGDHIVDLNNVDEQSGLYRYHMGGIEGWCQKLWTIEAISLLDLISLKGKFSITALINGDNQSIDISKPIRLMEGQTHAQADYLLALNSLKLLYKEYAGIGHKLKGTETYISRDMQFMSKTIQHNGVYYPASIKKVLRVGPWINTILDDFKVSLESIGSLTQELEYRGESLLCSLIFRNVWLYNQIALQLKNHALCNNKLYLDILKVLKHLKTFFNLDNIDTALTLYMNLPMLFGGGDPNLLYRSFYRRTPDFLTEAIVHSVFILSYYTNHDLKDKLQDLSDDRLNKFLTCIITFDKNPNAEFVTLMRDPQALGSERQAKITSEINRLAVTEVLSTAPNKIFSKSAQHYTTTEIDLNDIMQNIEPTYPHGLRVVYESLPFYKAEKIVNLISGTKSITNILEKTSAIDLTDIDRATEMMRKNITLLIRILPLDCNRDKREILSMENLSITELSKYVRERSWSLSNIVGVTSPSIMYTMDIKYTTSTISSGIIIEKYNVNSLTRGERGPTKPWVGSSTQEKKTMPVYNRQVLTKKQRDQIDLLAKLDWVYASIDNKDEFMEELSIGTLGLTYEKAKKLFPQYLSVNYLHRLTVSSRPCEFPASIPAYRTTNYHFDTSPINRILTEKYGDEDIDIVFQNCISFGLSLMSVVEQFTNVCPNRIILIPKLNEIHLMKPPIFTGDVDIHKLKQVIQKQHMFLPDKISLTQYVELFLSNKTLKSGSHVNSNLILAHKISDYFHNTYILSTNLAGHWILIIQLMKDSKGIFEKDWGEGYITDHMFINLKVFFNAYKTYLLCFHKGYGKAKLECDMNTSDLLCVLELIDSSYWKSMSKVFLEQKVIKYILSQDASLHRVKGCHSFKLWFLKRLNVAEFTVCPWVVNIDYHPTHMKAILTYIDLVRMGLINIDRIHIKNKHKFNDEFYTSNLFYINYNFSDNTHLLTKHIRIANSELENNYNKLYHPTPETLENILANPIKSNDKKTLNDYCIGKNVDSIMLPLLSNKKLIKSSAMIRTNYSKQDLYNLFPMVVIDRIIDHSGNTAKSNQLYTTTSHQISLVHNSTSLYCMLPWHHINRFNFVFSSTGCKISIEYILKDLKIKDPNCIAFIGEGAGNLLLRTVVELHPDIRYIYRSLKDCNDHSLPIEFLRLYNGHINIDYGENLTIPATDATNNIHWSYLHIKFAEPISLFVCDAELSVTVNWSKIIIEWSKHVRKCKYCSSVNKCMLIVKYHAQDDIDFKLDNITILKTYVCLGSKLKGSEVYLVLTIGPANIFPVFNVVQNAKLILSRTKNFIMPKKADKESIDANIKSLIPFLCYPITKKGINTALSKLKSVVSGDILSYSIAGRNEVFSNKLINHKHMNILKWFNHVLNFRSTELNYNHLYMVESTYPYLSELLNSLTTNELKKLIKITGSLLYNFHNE
recombinant RSV complex, sequence (P03421 whole entry, further chain): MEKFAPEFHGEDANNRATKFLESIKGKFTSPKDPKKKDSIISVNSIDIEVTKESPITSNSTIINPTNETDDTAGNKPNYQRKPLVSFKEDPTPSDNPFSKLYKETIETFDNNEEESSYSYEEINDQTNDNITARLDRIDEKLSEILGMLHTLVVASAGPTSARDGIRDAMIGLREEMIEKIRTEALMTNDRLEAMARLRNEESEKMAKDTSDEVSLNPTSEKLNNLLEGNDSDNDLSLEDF

With `COc1cc(C(=O)NC[C@@](O)(c2cc([C@]3(C)CCN3)cc(-c3ccc(F)cc3)n2)C(F)(F)F)ccc1OC[C@@H](C)O` (racemic) [Compound 14], the CC50 (commonly the concentration that lowers cell viability or growth by half) at 5 days in series [1] lay within 10 to 100 µM. Also, the IC50 (as a rule, the concentration needed to halve the response being measured) in series [2] is under 1 µM. For the same compound, in series [3] (setting [4]), the EC50 – broadly, the concentration needed to bring the measured effect to its halfway point – was under 1 µM. `COc1cc(C(=O)NC[C@@](O)(c2cc(C3(C)CCN3)cc(-c3ccc(F)cc3)n2)C(F)(F)F)ccc1OC[C@@H](C)O` (single isomer, unassigned) [Compound 15] gave a CC50 at 5 days in series [1] of 10 to 100 µM. Also, the IC50 in series [2] was under 1 µM. The compound further displayed an EC50 in series [3] (setting [4]) of under 1 µM. Compound `COc1cc(C(=O)NC[C@@](O)(c2cc3c(c(-c4ccc(F)cc4)n2)NC[C@@]3(C)N)C(F)(F)F)ccc1OCCO` (single isomer, unassigned) [Compound 51] yielded a CC50 at 5 days in series [1] of over 100 µM. Besides, the IC50 in series [2] is under 1 µM. Also, the EC50 in series [3] (setting [4]) is under 1 µM. As to `COc1cc(C(=O)NC[C@](O)(c2cc3c(c(-c4ccc(F)cc4)n2)NC[C@]3(C)N)C(F)(F)F)ccc1OCCO` (single isomer, unassigned) [Compound 53], the IC50 in series [2] was under 1 µM. As to `COc1cc(C(=O)NCC(O)(c2cc3c(c(-c4ccc(F)cc4)n2)OCC3(C)N)C(F)(F)F)cc2c1NC(=O)C2` (centres unmarked) [Compound 9], in series [2], the IC50 is under 1 µM.

For the compound `COc1cc(C(=O)NCC(O)(c2cc3c(c(-c4ccc(F)cc4)n2)OC[C@@]3(C)N)C(F)(F)F)cc2c1OC(=O)NC2` (some centres unmarked) [Compound 17], the IC50 in series [2] was under 1 µM. Compound `CC1(N)COc2c1cc(C(O)(CNC(=O)c1ccc(OC3CC3)c(OC3CC3)c1)C(F)(F)F)nc2-c1ccc(F)cc1` (centres unmarked) [Compound 25] yielded a CC50 at 5 days in series [1] of 10 to 100 µM. Also, in series [2], the IC50 was under 1 µM. The compound `COc1cc(C(=O)NCC(O)(c2cc3c(c(-c4ccccc4)n2)OCC3(C)N)C(F)(F)F)ccc1OCCO` (centres unmarked) [Compound 27] had a CC50 at 5 days in series [1] of 10 to 100 µM. Moreover, in series [2], the IC50 is under 1 µM. For the compound `COc1cc(C(=O)NCC(O)(c2cc3c(c(-c4ccc(F)cc4)n2)OCC3(C)N)C(F)(F)F)ccc1C#CCO` (centres unmarked) [Compound 28], the IC50 in series [2] was under 1 µM. This compound had a half-maximal effective concentration (EC50) in series [3] (setting [4]) of under 1 µM. As to `CC1(N)COc2c1cc(C(O)(CNC(=O)c1cc3c(c(OC4CC4)c1)OC(=O)NC3)C(F)(F)F)nc2-c1ccc(F)cc1` (centres unmarked) [Compound 32], in series [2], the IC50 was under 1 µM. Consider `CC1(N)COc2c1cc(C(O)(CNC(=O)c1ccc3c(c1)OCCN3CCO)C(F)(F)F)nc2-c1ccc(F)cc1` (centres unmarked) [Compound 33], for which the IC50 in series [2] was under 1 µM. In series [3] (setting [4]), this compound came in with an EC50 of under 1 µM. As for `CC1(N)COc2c1cc(C(O)(CNC(=O)c1ccc(OC3CC3)c(OCCO)c1)C(F)(F)F)nc2-c1ccc(F)cc1` (centres unmarked) [Compound 35], in series [2], the IC50 is under 1 µM. With `COc1ccc(C(=O)NCC(N)(c2cc(C(C)(C)N)cc(-c3ccc(F)cc3)n2)C(F)(F)F)cc1OCCO` (centres unmarked) [Compound 42], the IC50 in series [2] is under 1 µM. For `CC1(N)COc2c1cc(C(O)(CNC(=O)c1cnc(OCCO)cc1O)C(F)(F)F)nc2-c1ccc(F)cc1` (centres unmarked) [Compound 46], in series [1], the CC50 at 5 days was over 100 µM. With `COc1nc(C(=O)NCC(O)(c2cc3c(c(-c4ccc(F)cc4)n2)OCC3(C)N)C(F)(F)F)cc2oc(=O)[nH]c12` (centres unmarked) [Compound 48], in series [1], the CC50 at 5 days was 10 to 100 µM. Also, the IC50 in series [2] is under 50 µM.

Turning to `COc1cc(C(=O)NCC(O)(c2nc(-c3ccc(F)cc3)c3ccccn23)C(F)(F)F)ccc1OCCO` (centres unmarked) [Compound 54], the IC50 in series [2] is under 50 µM. As for `CC(C)(N)c1cc(-c2ccc(F)cc2)nc([C@](O)(CNC(=O)c2ccc(OCCO)c(OC3CC3)c2)C(F)(F)F)c1` [Compound 56], in series [2], the IC50 is under 1 µM. Still for that read-out and setting: the value for `CC(C)(N)c1cc(-c2ccc(F)cc2)nc([C@](O)(CNC(=O)c2ccc(OC3CC3)c(OCCO)c2)C(F)(F)F)c1` [Compound 58] was under 1 µM; that for `COc1cc(C(=O)NC[C@@](O)(c2cc3c(c(-c4ccc(F)cc4)n2)OC[C@@]3(C)N)C(F)(F)F)ncc1OCCO` [Compound 77] was under 1 µM; that for `COc1cc(C(=O)NCC(O)(c2cn(C(C)(C)CN)cc(-c3ccc(F)cc3)c2=O)C(F)(F)F)ccc1OCCO` (centres unmarked) [Compound 78] was under 50 µM.

Turning to `COc1cc(C(=O)NC[C@@](O)(c2cc3c(c(-c4ccc(F)cc4)n2)OC[C@@]3(C)N)C(F)(F)F)cc2ccn(CCO)c12` [Compound 89], the IC50 in series [2] is under 1 µM. Consider `COc1cc(C(=O)NC[C@@](O)(c2cc3c(c(-c4ccc(F)cc4)n2)OC[C@@]3(C)N)C(F)(F)F)cc2c1NCCC2` [Compound 96], for which, in series [2], the IC50 is under 1 µM. Moreover, in series [3] (setting [4]), the half-maximal effective concentration (EC50) was under 1 µM. For `COc1nc(C(=O)NC[C@@](O)(c2cc3c(c(-c4ccc(F)cc4)n2)NC[C@@]3(C)N)C(F)(F)F)cc2c1NC(=O)C2` [Compound 99], the IC50 in series [2] was under 1 µM. As for `COc1cc(C(=O)NC[C@@](O)(c2cc3c(c(-c4ccc(F)cc4)n2)NCC[C@]3(C)N)C(F)(F)F)ccc1OC[C@@H](C)O` [Compound 100], in series [2], the IC50 was under 50 µM.

`COc1cc(C(=O)NCC(O)(c2cc3c(c(-c4ccc(F)cc4)n2)OCC32CCN2)C(F)(F)F)ccc1OCCO` (centres unmarked) [Compound 109] showed a cytotoxic concentration (CC50) at 5 days in series [1] of 10 to 100 µM. For the same compound, in series [2], the IC50 was under 1 µM. In turn, `C[C@@]1(N)COc2c1cc([C@](O)(CNC(=O)c1ccc(Cl)s1)C(F)(F)F)nc2-c1ccc(F)cc1` [Compound 110] displayed a CC50 at 5 days in series [1] of 10 to 100 µM. In the case of `COc1cc(C(=O)NC[C@@](O)(c2cc3c(C)c[nH]c3c(-c3ccc(F)cc3)n2)C(F)(F)F)ccc1OCCO` [Compound 111], the CC50 at 5 days in series [1] is 10 to 100 µM. Moreover, in series [2], the IC50 is under 1 µM.

In series [1], `COc1cc(C(=O)NCC(O)(c2cc(C3(C)CCNC3)cc(-c3ccc(F)cc3)n2)C(F)(F)F)ccc1OCCO` (centres unmarked) [Compound 116] displayed a CC50 at 5 days of 10 to 100 µM. Moreover, in series [2], the IC50 was under 1 µM. Turning to `C[C@@]1(N)CNc2c1cc([C@](O)(CNC(=O)c1ccc(OC3CC3)c(OC3CC3)c1)C(F)(F)F)nc2-c1ccc(F)cc1` [Compound 126], the IC50 in series [2] is under 1 µM. In series [3], the EC50 was under 1 µM. For the compound `CC[C@]1(N)COc2c1cc([C@](O)(CNC(=O)c1ccc(OC[C@@H](C)O)c(OC)c1)C(F)(F)F)nc2-c1ccc(F)cc1` [Compound 133], the IC50 in series [2] is under 1 µM. In the case of `COc1cc(C(=O)NCC(O)(c2nc(-c3ccc(F)cc3)n3ccccc23)C(F)(F)F)ccc1OCCO` (centres unmarked) [Compound 137], the IC50 in series [2] was under 1 µM.
